Results taken from paper PMC7187253 (Clinical Pharmacology in Drug Development, 2019).
Like-named read-outs stand apart in the source and are kept apart here.

How the values were obtained:
[1] = type: in vivo, human; settings: for MR (metabolite‐to‐parent ratio for AUC24), geometric mean (%CV): corrected for molecular weight; for Cmin, geometric mean (%CV): 0‐24 h after last dose; for AUC(0-t): AUClast
[2] = tested on: cardiac repolarization in healthy subjects; assay: PK/PD exposure‐response analysis of QTcF; settings: for Estimated slope of the regression for ∆QTcF versus plasma concentration: separate PK/PD models for sertraline and N‐desmethylsertraline concentration
[3] = tested on: extracellular 5‐HT levels; settings: compared with sertraline; cited from earlier work
[4] = cited from earlier work
[5] = tested on: healthy subjects; assay: Safety assessments; type: in vivo, human; settings: for Fatigue / Headache / Insomnia / TEAEs considered treatment related / Total TEAEs reported / Subjects reporting ≥1 AE: during treatment period; for Subjects reporting ≥1 AE: sertraline n = 52, moxifloxacin n = 50
[6] = tested on: CYP2C9; settings: cited from earlier work
[7] = tested on: CYP1A2; settings: cited from earlier work
[8] = tested on: CYP2D6; settings: cited from earlier work
[9] = tested on: Kv1.5; settings: Chinese hamster ovary cells; cited from earlier work
[10] = tested on: QTc interval; settings: cited from earlier work
[11] = cited from earlier work; remark: listed apart in the source
[12] = tested on: CYP2C19; settings: cited from earlier work
[13] = tested on: cardiac repolarization in healthy subjects
[14] = ref Pfizer Inc, data on file, cited from earlier work
[15] = Day 1, sertraline 50 mg single dose
[16] = Day 1, sertraline 50 mg single dose, plasma, healthy subjects
[17] = Day 14, sertraline 400 mg/day multiple dose
[18] = human, plasma, 400 mg/day, arithmetic mean ± SD, Day 14, sertraline 400 mg/day multiple dose
[19] = patients admitted for sertraline overdose (>200 mg)
[20] = 1 h after dosing on day 14, sertraline 400 mg/day
[21] = 2 h after dosing on day 14, sertraline 400 mg/day
[22] = 3 h after dosing on day 14, sertraline 400 mg/day
[23] = 4 h after dosing on day 14, sertraline 400 mg/day
[24] = 5 h after dosing on day 14, sertraline 400 mg/day
[25] = 6 h after dosing on day 14, sertraline 400 mg/day
[26] = 8 h after dosing on day 14, sertraline 400 mg/day
[27] = 12 h after dosing on day 14, sertraline 400 mg/day
[28] = 24 h after dosing on day 14, sertraline 400 mg/day
[29] = categorical analysis of maximum postdose QTcF

With N[C@H]1CC[C@@H](c2ccc(Cl)c(Cl)c2)c2ccccc21 [N‐desmethylsertraline] the “AUC24, arithmetic mean ± SD” value [1, 15] was 79.03 ± 19.199 ng·h/mL, the “AUC24, geometric mean (%CV)” value [1, 15] was 76.87 (24) ng • h/mL and the “Cmax, arithmetic mean ± SD” value [1, 15] was 4.428 ± 1.3189 ng/mL. For the same molecule, the “MR (metabolite‐to‐parent ratio for AUC24), arithmetic mean ± SD” value [1, 15] was 0.5493 ± 0.1743, the “tmax, median (range)” value [1, 15] was 12.0 (5.00‐23.9) h and the “Cmax, geometric mean (%CV)” value [1, 16] was 4.269 (27) ng/mL. The “MR (metabolite‐to‐parent ratio for AUC24), geometric mean (%CV)” value [1, 15] was 0.5222 (34), the “Cmax, geometric mean (%CV)” value ([1]; Day 14, sertraline 400 mg/day (200 mg BID, only morning dose on day 14), multiple dose, plasma) was 249.6 (23) ng/mL and the “AUC24, arithmetic mean ± SD” value [1, 17] was 5342 ± 1109.5 ng·h/mL. The “AUC24, geometric mean (%CV)” value [1, 17] was 5227 (22) ng • h/mL, the “AUClast, arithmetic mean ± SD” value [1, 17] was 13500 ± 3225.2 ng·h/mL and the “AUClast, geometric mean (%CV)” value [1, 17] was 13110 (25) ng • h/mL. The “Cmin, arithmetic mean ± SD” value [1, 17] was 188.4 ± 39.567 ng/mL, the “MR (metabolite‐to‐parent ratio for AUC24), arithmetic mean ± SD” value [1, 17] was 1.283 ± 0.3075 and the “tmax, median (range)” value [1, 17] was 8.00 (1.07‐12.1) h. The “Cmin, geometric mean (%CV)” value [1, 17] was 184.1 (23) ng/mL, the “MR (metabolite‐to‐parent ratio for AUC24), geometric mean (%CV)” value [1, 17] was 1.248 (24) and the “Estimated slope of the regression for ∆QTcF versus plasma concentration” value [2] was 0.036 ms/ng/mL. The “Effect on extracellular 5‐HT levels” value [3] was “lack of effect”.
In the case of COc1c(N2C[C@@H]3CCCN[C@@H]3C2)c(F)cc2c(=O)c(C(=O)O)cn(C3CC3)c12 [moxifloxacin], the Population tmax [4] is listed as 3 h, the Fatigue [5] is listed as 7 subjects and the Headache [5] is listed as 11 subjects. The Insomnia [5] was 11 subjects, the “TEAEs considered treatment related” value [5] was 92 and the “Total TEAEs reported” value [5] was 105. The “Subjects reporting ≥1 AE” value [5] was 42 subjects.
For CN[C@H]1CC[C@@H](c2ccc(Cl)c(Cl)c2)c2ccccc21 [sertraline], the “Cmax, geometric mean (%CV)” value [1, 16] was 11.39 (37) ng/mL, the “Cmin, arithmetic mean ± SD” value [1, 17] was 146.1 ± 57.093 ng/mL and the “Rac (observed accumulation ratio of AUC), arithmetic mean ± SD” value [1, 17] was 3.71 ± 0.82. For the same molecule, the “Rac (observed accumulation ratio of AUC), geometric mean (%CV)” value [1, 17] was 3.62 (22.79), the “Cmin, geometric mean (%CV)” value [1, 17] was 135.3 (43) ng/mL and the Tmax ([1]; human, plasma, 50 mg) was 5.06 h. For the same molecule, the AUC ([1]; human, plasma, 50 mg, AUC24, arithmetic mean ± SD, Day 1, sertraline 50 mg single dose) was 162 ± 50.3 ng·h/mL, the AUC ([1]; human, plasma, 50 mg, AUC24, geometric mean (%CV), Day 1, sertraline 50 mg single dose) was 154 ng·h/mL and the Cmax ([1]; human, plasma, 50 mg, arithmetic mean ± SD, Day 1, sertraline 50 mg single dose) was 12.1 ± 4.34 ng/mL. For the same molecule, the Cmax ([1]; human, plasma, 50 mg, geometric mean (%CV), Day 1, sertraline 50 mg single dose, plasma, healthy subjects) was 11.4 ng/mL, the concentration at 4 h ([1]; human, plasma, 400 mg/day) was 213 ng/mL and the AUC ([1]; human, plasma, 400 mg/day, AUC24, arithmetic mean ± SD, Day 14, sertraline 400 mg/day multiple dose) was 4650 ± 1580 ng·h/mL. The AUC ([1]; human, plasma, 400 mg/day, AUC24, geometric mean (%CV), Day 14, sertraline 400 mg/day multiple dose) was 4390 ng·h/mL, the AUC(0-t) [1, 18] was 9190 ± 3720 ng·h/mL and the AUC(0-t) ([1]; human, plasma, 400 mg/day, geometric mean (%CV), Day 14, sertraline 400 mg/day multiple dose) was 8490 ng·h/mL. For the same molecule, the Cmax [1, 18] was 246 ± 80.6 ng/mL, the Cmax ([1]; human, plasma, 400 mg/day, geometric mean (%CV), Day 14, sertraline 400 mg/day (200 mg BID, only morning dose on day 14), multiple dose, plasma) was 234 ng/mL and the CYP2C9 inhibitor class [6] was “weak inhibitor”. For the same molecule, the CYP1A2 inhibitor class [7] was “weak inhibitor”, the CYP2D6 inhibitor class [8] was “weak to moderate inhibitor” and the “Increase in exposure with hepatic impairment” value ([4]; hepatic impairment) was 1.7 fold. For the same molecule, the “Effect on Kv1.5” value [9] was “voltage‐dependent inhibition”, the “Predicted mean ∆∆QTcF” value ([2]; at mean supratherapeutic Cmax of 234 ng/mL on day 14) was 8.93 milliseconds and the “Predicted mean ∆ΔQTcF (change from baseline QTcF adjusted for placebo)” value ([2]; at mean therapeutic maximum plasma sertraline concentration of 86 ng/mL (200 mg/day)) was 3.57 milliseconds. The “Predicted mean ∆∆QTcF” value ([2]; at peak plasma sertraline concentration 223.5 ng/mL) was 8.55 milliseconds, the “Estimated slope of the regression for ∆QTcF versus plasma concentration” value [2] was 0.036 ms/ng/mL and the “Incidence of maximum QTcB interval prolongation (males >450 ms; females >460 ms)” value ([10]; ECG database, dosing and concomitant medications unknown) was 7.9%. For the same molecule, the “Increase in QT/QTc interval” value ([10]; clinical trials, sertraline 50‐200 mg/day, major depression) was “No statistically significant increase”, the “Mean increase in QTc interval compared with placebo” value ([10]; meta‐analysis of study‐level trial data, sertraline 50‐200 mg/day) was 3.0 millisecond and the “Incidence of QTc interval >500 ms” value [10, 19] was 6%. The “Incidence of QTc interval greater than 440 ms” value [10, 19] was 40%, the “Mean QTcF increase” value ([10]; prospective, cross‐sectional population‐based study (n = 42)) was 1.7 milliseconds and the Maximum tolerated dose [11] was 400 mg/day. The CYP2C19 inhibitor class [12] was “weak inhibitor”, the “QTcF, Least Squares Difference (Sertraline‐Placebo)” value (“QTcF, Least Squares Difference” for short) [13, 20] was 6.957 ms and the “QTcF, Least Squares Mean” value [13, 20] was 414.299 ms. For the same molecule, the “QTcF, Least Squares Difference” value [13, 21] was 7.851 ms, the “QTcF, Least Squares Mean” value [13, 21] was 415.625 ms and the “QTcF, Least Squares Difference” value [13, 22] was 7.824 ms. The “QTcF, Least Squares Mean” value [13, 22] was 416.465 ms, the “QTcF, Least Squares Difference” value [13, 23] was 9.651 ms and the “QTcF, Least Squares Mean” value [13, 23] was 418.252 ms. The “QTcF, Least Squares Difference” value [13, 24] was 7.377 ms, the “QTcF, Least Squares Mean” value [13, 24] was 411.285 ms and the “QTcF, Least Squares Difference” value [13, 25] was 6.511 ms. For the same molecule, the “QTcF, Least Squares Mean” value [13, 25] was 408.985 ms, the “QTcF, Least Squares Difference” value [13, 26] was 5.597 ms and the “QTcF, Least Squares Mean” value [13, 26] was 408.732 ms. The “QTcF, Least Squares Difference” value [13, 27] was 5.677 ms, the “QTcF, Least Squares Mean” value [13, 27] was 411.019 ms and the “QTcF, Least Squares Difference” value [13, 28] was 7.346 ms. For the same molecule, the “QTcF, Least Squares Mean” value [13, 28] was 414.294 ms, the “Time of longest placebo‐adjusted QTc interval” value ([13]; after dosing on day 14, sertraline 400 mg/day) was 4 h and the “Subjects with absolute QTcF interval of ≥480 milliseconds” value [13, 29] was “no participant”. The “Subjects with maximum increase from baseline in QTcF of ≥60 milliseconds” value [13, 29] was “no participant”, the “Predose (time 0) QTcF, mean (standard deviation)” value ([13]; day 14 of sertraline treatment period) was 414.9 (14.89) milliseconds and the “Cmax at 400 mg/day relative to Cmax at 200 mg/day” value ([14]; day 14) was “approximately 3 times”. For the same molecule, the “Mean Cmax” value ([14]; sertraline 400 mg/day, day 14, healthy subjects) was 282 ng/mL, the Fatigue [5] was 17 subjects and the Headache [5] was 18 subjects. For the same molecule, the Insomnia [5] was 22 subjects, the “TEAEs considered treatment related” value [5] was 238 and the “Total TEAEs reported” value [5] was 251. For the same molecule, the “Subjects reporting ≥1 AE” value [5] was 45 subjects, the “Severe AE / SAE (psychiatric decompensation)” value ([5]; subject withdrawn, resolved the same day) was “single severe AE” and the “Discontinued study treatment due to an AE (asthma)” value ([5]; while receiving sertraline treatment) was “One additional subject”.
